According to patent publication US20240408222A1, “COMPOUNDS, PHARMACEUTICAL COMPOSITIONS, AND METHODS FOR THE TREATMENT, PREVENTION, OR MANAGEMENT OF HYPERPRO[…]” (VINCERX PHARMA GMBH, priority 2021, published 2024):
Read-outs that look alike come from different tables or passages of the source.

Key:
[1] = 37° C.
Method: Method for measurement of stability in rat and human plasma: 1 mg of the test compound was dissolved in 0.5 ml acetonitrile/dimethylsulfoxide 1:1. For complete dissolution the HPLC vial was shaken and sonicated. While vortexing, 20 μl of this solution was added to 1 ml 37° C. warm plasma. After 10 min, 0.5 h, 1 h, 1.5 h, 2 h, and 4 h, the assay was stopped by adding 100 μl of the compound plasma solution to a vial containing 300 μl acetonitrile/buffer pH 3 (80:20) at RT. The mixture was centrifuged at 5000 rpm for 10 minutes. The supernatant was analyzed by HPLC to determine the amount of the test compound and up to two byproducts. To values resulted from a processed sample immediately taken after vortexing with plasma at RT. The peak areas (in percentage) were used for quantification. All data was given as percent area of the initial compound at to. The results of these assays are shown in FIG. 1 and FIG. 2 for rat and human plasma, respectively.

SUM149 [2] = test: Cytotoxicity in vitro (MTT) in presence/absence of elastase; type: cell-based; conditions: 72 h
Method: (§1) Cultivation of cells was performed according to standard procedures with the media recommended by the provider. The cells, in a total volume of 100 μL, were seeded in a 96-well plate with a white bottom (#3610). After a 24 h incubation period at 37° C. and […], the medium was exchanged by adding 90 μL fresh medium. The treatment started by adding the test compound in 10 μL of culture medium to the cells in triplicates. Concentrations ranging from 10^−5 M to 10^−13 M were chosen. Two identically treated sets of samples were prepared. One set was treated with the test compound alone, whereas to the second set the compound and 10 nM elastase was added followed by a 72 h incubation period at 37° C. and […]. The proliferation was detected using the MTT assay (ATCC). At the end of the incubation period the MTT reagent was added to all samples for 4 h. Lysis of the cells followed by addition of the detergent was done overnight. The formed dye was detected at 570 nm. The proliferation of untreated but otherwise identically handled cells was define as the 100% value.

NCI H292 [3] = test: as above; type: cell-based, human; conditions: 72 h
Method: as §1

HT29 [4] = test: as above; type: cell-based, human; conditions: 72 h
Method: as §1

786-O [5] = test: as above; type: cell-based, human; conditions: 72 h
Method: as §1

[6] = buffer pH 7.4, 37° C.
Method: Method for measurement of stability in buffer: 0.15 mg of the test compound was dissolved in 0.1 ml dimethylsulfoxide and 0.4 ml acetonitrile. For complete dissolution, the HPLC vial with the sample solution was shaken and sonicated. Then 1.0 ml of the respective buffer solution was added, and the sample was vortexed. The sample solution was analysed by HPLC to determine the amount of the test compound and up to two byproducts at a particular time over a period of 24 h at 37° C. […] The peak areas (in percentage) were used for quantification.

NCI H292 [7] = test: Cytotoxicity assay (Version 2, automated, AC50) with/without neutrophil elastase; type: cell-based, human; conditions: Version 2, activity concentration at −50%
Outline: (§2)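 Cells were treated in triplicate with compound at 10^−5 M to 10^−13 M, with or without 10 nM elastase, for 72 h at 37 °C. Viability was read by MTT at 570 nm, normalized to cell-free medium (−100%) and DMSO-treated cells (0%); AC50 at −50% from 4-parameter Hill fit.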

HT29 [8] = test: as above; type: cell-based, human; conditions: Version 2, activity concentration at −50%
Outline: as §2

786-O [9] = test: as above; type: cell-based, human; conditions: Version 2, activity concentration at −50%
Outline: as §2

SUM149 [10] = test: as above; type: cell-based; conditions: Version 2, activity concentration at −50%
Outline: as §2

HT29 [11] = test: Cytotoxicity in vitro in presence/absence of cathepsin B; type: cell-based, human
cathepsin B = cathepsin B (Homo sapiens, UniProt P07858); test: Biochemical cathepsin B cleavage assay (metabolite detection by RP-HPLC)
Method: Incubation of samples starts with addition of cathepsin B solution (2.5 μg in […] 50 mM sodium phosphate buffer, pH 6.0/2 mM DTT). The incubation is performed at 40° C., and after 16 h incubation a 40 μL sample is taken and added to 80 μL ice-cold methanol. […] The metabolite (product) and the parent compound (educt) is measured.

NCI H292 [12] = test: Cytotoxicity in vitro in presence/absence of cathepsin B; type: cell-based, human
SUM149 [13] = test: as above; type: cell-based
NCI H292 [14] = test: Cytotoxicity in vitro in presence/absence of legumain; type: cell-based, human
rec. human legumain = rec. human legumain (Homo sapiens, UniProt Q99538); conditions: for metabolite formation after incubation with legumain: 16 h incubation, 37° C., pH 5,0; for metabolite formation without addition of active legumain: control without active legumain
Chain of rec. human legumain (Q99538 18-323 limits assumed): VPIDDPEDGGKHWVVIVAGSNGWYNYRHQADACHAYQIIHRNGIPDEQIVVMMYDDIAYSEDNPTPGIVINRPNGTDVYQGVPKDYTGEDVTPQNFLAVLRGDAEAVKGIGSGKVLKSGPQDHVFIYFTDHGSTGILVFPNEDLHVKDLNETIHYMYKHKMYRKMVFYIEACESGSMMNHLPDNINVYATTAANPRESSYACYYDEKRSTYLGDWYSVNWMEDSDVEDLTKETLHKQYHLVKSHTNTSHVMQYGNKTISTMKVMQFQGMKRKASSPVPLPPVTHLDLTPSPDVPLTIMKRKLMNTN
Method: 10 μg rec. human legumain are added to 100 μL activation buffer (50 mM sodium acetate buffer/100 mM NaCl, pH 4,0) and incubated for 2 h at 37° C., before 4.9 mL assay buffer (50 mM MES buffer/250 mM NaCl, pH 5,0) is added (final concentration of rec. hum. legumain: 2 μg/mL). For the selected sample, activated legumain is added to the compound solution. Then the solution is incubated at 37° C. At 16 h-a 50 μL sample is taken and added to 100 μL ice-cold methanol. For the untreated control (0 h) ice-cold methanol is pipetted in a tube before the legumain and compound solution are added. Samples can be stored at −20° C. or analyzed directly by HPLC or LCMS. The metabolite and the parent compound (educt) are measured.
Samples from enzymatic assays are added to the double volume of methanol and incubated for at least 30 min at −20° C. to precipitate proteins. Samples are then centrifuged for 10 min, 16100×g at 4° C. and analyzed by RP-HPLC using a gradient (PLRP-S-A1 79.0% PLRP-S—B1 21.0%, duration 24 min). After the centrifugation the supernatant is collected, calibration curves are obtained using the respective compound and the corresponding metabolite solution. A 10 mM DMSO stock solution is diluted with Methanol to achieve the chosen end concentration.

SUM149 [15] = test: Cytotoxicity in vitro in presence/absence of legumain; type: cell-based
HT29 [16] = test: as above; type: cell-based, human
[17] = SUM149, without (−) neutrophil elastase
[18] = NCI H292, without (−) neutrophil elastase
[19] = HT29, without (−) neutrophil elastase
[20] = without (−) neutrophil elastase
[21] = NCI H292, with (+) neutrophil elastase
[22] = HT29, with (+) neutrophil elastase
[23] = SUM149, with (+) neutrophil elastase

Compound	AC50 (NCI H292 [7]; [21])	AC50 (HT29 [8]; [22])	AC50 (HT29 [8]; [19])	AC50 (786-O [9]; with (+) neutrophil elastase)	AC50 (786-O [9]; [20])	AC50 (SUM149 [10]; [23])	AC50 (SUM149 [10]; [17])	AC50 (NCI H292 [7]; [18])	IC50 (NCI H292 [14]; NCI H292, with (+) legumain)	IC50 (NCI H292 [14]; NCI H292, without (−) legumain)	metabolite formation after incubation with legumain (rec. human legumain)	metabolite formation without addition of active legumain (rec. human legumain)	IC50 (SUM149 [15]; SUM149, with (+) legumain)	IC50 (SUM149 [15]; SUM149, without (−) legumain)	IC50 (HT29 [16]; HT29, with (+) legumain)	IC50 (HT29 [16]; HT29, without (−) legumain)	also measured
CCCNC(=O)Nc1cccc(S(=O)(=O)Nc2cccc([C@@H](CC(=O)[O-])NC(=O)Nc3ccc(NC(=O)NCCOCCOCCOCCC(=O)N[C@@H](CC(=O)[O-])C(=O)N4CCC[C@H]4C(=O)N[C@H](C(=O)N=[S@@](C)(=O)Cc4cc5cc(c4)OCCCCOc4cc(F)ccc4-c4nc(ncc4F)N5)C(C)C)cc3)c2)c1.[Na+].[Na+] [Compound 3]	11 to 100 nM	11 to 100 nM	> 1000 nM	11 to 100 nM	> 1000 nM	11 to 100 nM	100 to 1000 nM	–	–	–	–	–	–	–	–	–	time stable in plasma (no significant degradation) ([1]; human plasma): at least 4 h; time stable in plasma (no significant degradation) ([1]; rat plasma): at least 4 h; IC50 (SUM149 [2]; SUM149, with (+) 10 nM neutrophil elastase): ≤ 1 nM; IC50 (SUM149 [2]; [17]): > 100 nM; IC50 (NCI H292 [3]; NCI H292, with (+) 10 nM neutrophil elastase): ≤ 1 nM; IC50 (NCI H292 [3]; [18]): > 100 nM; IC50 (HT29 [4]; HT29, with (+) 10 nM neutrophil elastase): ≤ 1 nM; IC50 (HT29 [4]; [19]): > 100 nM; IC50 (786-O [5]; with (+) 10 nM neutrophil elastase): ≤ 1 nM; IC50 (786-O [5]; [20]): > 100 nM; time stable in buffer (no significant degradation) [6]: at least 24 h
CCCNC(=O)Nc1cccc(S(=O)(=O)Nc2cccc([C@@H](CC(=O)[O-])NC(=O)Nc3ccc(NC(=O)NCCOCCOCCOCCC(=O)N[C@H](C(=O)N[C@@H](CCCNC(N)=O)C(=O)N=[S@@](C)(=O)Cc4cc5cc(c4)OCCCCOc4cc(F)ccc4-c4nc(ncc4F)N5)C(C)C)cc3)c2)c1.[Na+] [Compound 7, sodium N-{14-[4-({[(1R)-2-carboxylato-1-{3-[({3-[(propylcarbamoyl)amino]phenyl}sulfonyl)amino]phenyl}ethyl]carbamoyl}amino)anilino]-14-oxo-4,7,10-trioxa-13-azatetradecan-1-oyl}-L-valyl-N^5-carbamoyl-N—[(S)-{[16,20-difluoro-2,3,4,5-tetrahydro-12H-13,17-(azeno)-11,7-(metheno)-1,6,12,14-benzodioxadiazacyclononadecin-9-yl]methyl}(methyl)oxido-lambda^6-sulfanylidene]-L-ornithinamide]	100 to 1000 nM	11 to 100 nM	11 to 100 nM	11 to 100 nM	11 to 100 nM	11 to 100 nM	11 to 100 nM	100 to 1000 nM	–	–	–	–	–	–	–	–	IC50 (HT29 [11]; HT29, with (+) cathepsin): > 100 nM; IC50 (HT29 [11]; HT29, without (−) cathepsin): > 100 nM; metabolite detected after incubation with cathepsin B (cathepsin B; 16 h incubation, 40° C., pH 6.0): 16%; metabolite formation without addition of active cathepsin B (cathepsin B; control without active cathepsin B): no metabolite formation is detected; IC50 (NCI H292 [12]; NCI H292, with (+) cathepsin): 11 to 100 nM; IC50 (NCI H292 [12]; NCI H292, without (−) cathepsin): 11 to 100 nM; IC50 (SUM149 [13]; SUM149, with (+) cathepsin): 11 to 100 nM; IC50 (SUM149 [13]; SUM149, without (−) cathepsin): > 100 nM
CCCNC(=O)Nc1cccc(S(=O)(=O)Nc2cccc([C@@H](CC(=O)[O-])NC(=O)Nc3ccc(NC(=O)NCCOCCOCCOCCC(=O)N[C@@H](C)C(=O)N(C)[C@@H](C)C(=O)N[C@@H](CC(=O)N=[S@@](C)(=O)Cc4cc5cc(c4)OCCCCOc4cc(F)ccc4-c4nc(ncc4F)N5)C(N)=O)cc3)c2)c1.[Na+] [Compound 8, sodium N-{14-[4-({[(1R)-2-carboxylato-1-{3-[({3-[(propylcarbamoyl)amino]phenyl}sulfonyl)amino]phenyl}ethyl]carbamoyl}amino)anilino]-14-oxo-4,7,10-trioxa-13-azatetradecan-1-oyl}-L-alanyl-N-methyl-L-alanyl-N′—[(S)-{[16,20-difluoro-2,3,4,5-tetrahydro-12H-13,17-(azeno)-11,7-(metheno)-1,6,12,14-benzodioxadiazacyclononadecin-9-yl]methyl}(methyl)oxido-lambda^6-sulfanylidene]-L-aspartamide]	100 to 1000 nM	11 to 100 nM	> 1000 nM	100 to 1000 nM	> 1000 nM	100 to 1000 nM	> 1000 nM	100 to 1000 nM	1.1 to 10 nM	11 to 100 nM	complete metabolite formation	no metabolite formation is detected	11 to 100 nM	11 to 100 nM	11 to 100 nM	11 to 100 nM	–
Sodium N-{14-[4-({[(1S)-2-carboxylato-1-{3-[({3-[(propylcarbamoyl)amino]phenyl}sulfonyl) amino]phenyl}ethyl]carbamoyl}amino)anilino]-14-oxo-4,7,10-trioxa-13-azatetradecan-1-oyl}-L-alanyl-N-methyl-L-alanyl-N′—[(S)-{[16,20-difluoro-2,3,4,5-tetrahydro-12H-13,17-(azeno)-11,7-(metheno)-1,6,12,14-benzodioxadiazacyclononadecin-9-yl]methyl} (methyl)oxido-lambda^6-sulfanylidene]-L-aspartamide [Compound 13]	100 to 1000 nM	11 to 100 nM	> 1000 nM	11 to 100 nM	> 1000 nM	11 to 100 nM	> 1000 nM	100 to 1000 nM	11 to 100 nM	11 to 100 nM	complete metabolite formation	no metabolite formation is detected	11 to 100 nM	11 to 100 nM	11 to 100 nM	11 to 100 nM	–
